Measurements reported in US20260266848A1, “COMPOSITIONS AND METHODS FOR DIAGNOSING AND TREATING DYSTONIA” (Duke University, priority 2023, published 2026).

Tests used:
WT MEF EVs = assay: Quantitative LC-MS/MS proteomics of EVs from ISRIB-treated WT MEF cultures; format: cell-based, mouse; design: key to ISRIB and DYT Parallel Direction / ISRIB and DYT Parallel Direction, Ctdsp1 / ISRIB and DYT Parallel Direction, Pcdh19 / ISRIB and DYT Parallel Direction, Tspan7 / ISRIB and DYT Parallel Direction, Myo1e / ISRIB and DYT Parallel Direction, Plpp3 / ISRIB and DYT Parallel Direction, Sh3bp4 / ISRIB and DYT Parallel Direction, Dnajc7 / ISRIB and DYT Parallel Direction, Drg1 / ISRIB and DYT Parallel Direction, Maea: YES = protein abundance effect similar to DYT/WT; conditions: EV protein abundance
DYT-TOR1A MEF EVs = assay: Quantitative LC-MS/MS proteomics of EVs from drug-treated DYT-TOR1A MEF cultures (ritonavir, salubrinal); format: cell-based, mouse; design: key to RTV Corrective Direction / RTV Corrective Direction, Grwd1 / RTV Corrective Direction, Srrm2 / RTV Corrective Direction, Rbm17 / RTV Corrective Direction, Dcaf8 / RTV Corrective Direction, Edil3 / RTV Corrective Direction, Timp3 / RTV Corrective Direction, Heatr3 / RTV Corrective Direction, Brd4 / RTV Corrective Direction, P3h4 / RTV Corrective Direction, Pacsin3 / RTV Corrective Direction, Naa50 / RTV Corrective Direction, Lpar6 / RTV Corrective Direction, Ndrg1 / RTV Corrective Direction, Kntc1 / RTV Corrective Direction, Cdk11b / RTV Corrective Direction, Sumo1 / RTV Corrective Direction, Lsm4 / RTV Corrective Direction, Hmga2 / RTV Corrective Direction, Cstf1 / RTV Corrective Direction, Tes / RTV Corrective Direction, Sbno1 / RTV Corrective Direction, Unc119b / RTV Corrective Direction, Cfdp1 / RTV Corrective Direction, Sec61b: YES = protein abundance effect opposite to DYT/WT; conditions: EV protein abundance

Q: Which “WT + ISRIB/WT Cohen's d” value (WT MEF EVs; ISRIB-treated WT vs WT) does the source give for Akr1b1 here?
A: −0.22

Q: And the “ISRIB and DYT Parallel Direction” value (WT MEF EVs; WT + ISRIB vs WT, direction compared with DYT/WT)?
A: YES

Q: And the “RTV Corrective Direction” value (DYT-TOR1A MEF EVs; DYT + RTV (ritonavir) vs DYT, direction compared with DYT/WT)?
A: YES

Q: What about the “DYT + RTV/DYT Cohen's d” value (DYT-TOR1A MEF EVs; ritonavir (RTV)-treated DYT vs DYT) of the same substance?
A: 5.32
